Experimental data taken from patent US20250387388A1, “COMPOUND AS TRK INHIBITOR AND/OR RET INHIBITOR AND USE THEREOF” (Medinno Pharmaceutical Technology (Zhuhai) Co., Ltd., priority 2022, published 2025).

Legend:
vitiligo model in mice = test: Vitiligo model in mice (monobenzone); type: in vivo, C57BL/6 mice; settings: for IL-6 level in serum / TNF-α level in serum: 3% MDI-1228 gel
Procedure: • (1) Normal control group (5 mice, no treatment) • (2) Vitiligo model group (8 mice, no treatment) • (3) Vitiligo model+vehicle treatment group (8 mice, blank gel preparation, dose: 1.5 g/kg, twice daily) • (4) Vitiligo model+positive control drug treatment group (8 mice, 0.03% Tacrolimus, twice daily, 50 mg per dose) • (5) Vitiligo model+MDI-1228 (0.5%) compound gel preparation group (8 mice, 1 g/kg, twice daily) • (6) Vitiligo model+MDI-1228 (1%) compound gel preparation group (8 mice, 1.5 g/kg, twice daily) • (7) Vitiligo model+MDI-1228 (3%) compound gel preparation group (8 mice, 1.5 g/kg, twice daily) • Experimental environment: Temperature 20° C.-26° C., humidity 40%-70%
Modeling: Mice were acclimated for 7 days and subjected to vitiligo modeling by removing the black hair from a 2 cm^2 area on the back of the mice and applying the medication with a spatula using moderate force. The normal control group was administrated with Vaseline 50 mg once daily; and the model group was administrated with 40% monobenzone cream 50 mg once daily for 93 consecutive days.
Model validation: One mouse from the blank group and one from the model group were selected for model validation. The criteria for hair depigmentation assessment: Observe the skin & hair depigmentation daily and record the scores. Divide the depigmented area into the treated area and the non-treated area, with a total score of 5 for each area, making a total of 10 points for each mouse. The scoring criteria for mouse skin & hair depigmentation: 0 points for no depigmentation, 1 point for depigmentation area of 0-10%, 2 points for depigmentation area of 11%-25%, 3 points for depigmentation area of 26%-50%, 4 points for depigmentation area of 51%-75%, and 5 points for depigmentation area of 76%-100%.
After a 35-days treatment administration, a 15-day visual observation of the therapeutic efficacy for vitiligo in the treated mice began, with observations conducted every 3 days (for a total of 5 times) and photographs taken during each observation. The criteria for evaluating efficacy were as follows: The depigmented areas were divided into treated and non-treated areas, with a total score of 5 for each area, making a total of 10 points for each mouse. The scoring criteria for mouse skin & hair depigmentation are: 0 points for no depigmentation, 1 point for a depigmentation area of 0-10%, 2 points for a depigmentation area of 11%-25%, 3 points for a depigmentation area of 26%-50%. 4 points for a depigmentation area of 51%-75%, and 5 points for a depigmentation area of 76%-100%.
(1) HE Staining: The removed tissue was rinsed with running water for several hours, dehydrated through a series of ethanol solutions (70%, 80%, 90%), and then treated with a mixture of pure alcohol and xylene at a ratio of 1:1 for 15 minutes, followed by xylene I for 15 minutes and xylene II for 15 minutes (until transparent). The tissue was then placed in a mixture of xylene and paraffin at a ratio of 1:1 for 15 minutes, followed by immersion with paraffin I and paraffin II each for 50-60 minutes. The tissue was embedded in paraffin and sectioned. The sections were mounted, baked, dewaxed and hydrated in distilled water. The resulting sections were then stained in hematoxylin solution for 3 minutes, differentiated in a hydrochloric acid alcohol solution for 15 seconds, slightly washed, blued in a return blue solution for 15 seconds, rinsed with running water, stained with eosin for 3 minutes, rinsed with running water, dehydrated, cleared, and mounted for microscopic examination.
(2) ELISA detection: A double-antibody one-step sandwich Enzyme-linked Immunosorbent Assay (ELISA) kit was used. A capture antibody for the mouse target indicators was pre-coated onto microplate wells, to which samples, standards, and HRP-labeled detection antibodies were added sequentially, followed by incubation and thorough washing. […]

alopecia areata in mice = test: Alopecia areata model in mice (imiquimod); type: in vivo, C3H/HeJ mice
Procedure: • Blank control group (no treatment) (N=5) • Blank alopecia areata model group (no treatment) (N=8) • Alopecia areata model+blank excipient group (vehicle treatment: blank gel preparation, dose: 1.5 g/kg per mouse, twice daily per mouse) (N=8) • Alopecia areata model+positive control drug group (compound Betamethasone cream (corticosteroid), twice daily, 50 mg each time per mouse) (N=8) • Alopecia areata model+0.5% MDI-1228 compound gel preparation group (dose: 1.0 g/kg per mouse, twice daily per mouse) (N=8) • Alopecia areata model+1% MDI-1228 compound gel preparation group (dose: 1.5 g/kg per mouse, twice daily per mouse) (N=8) • Alopecia areata model+3% MDI-1228 compound gel preparation group (dose: 1.5 g/kg per mouse, twice daily) (N=8) • Blank alopecia areata model (vehicle treatment: 5% DMSO+75% PEG300+20% EtOH) (N=8)
Modeling: Imiquimod cream was applied to the nape of the animals (no hair removal required), three times a week for three consecutive weeks. The control group was treated with a blank excipient without imiquimod. Each time, a clean medical cotton swab was used to apply approximately 0.03 g of imiquimod evenly over an area of about 1 cm×1 cm, and the application site was cleaned with normal saline before each application. The operation was performed gently to avoid skin abrasions or mechanical hair loss due to friction. […] During the modeling, the hair loss of the mice was recorded.
The blank control group (untreated) received no treatment; the drug groups were treated with the corresponding doses of compound betamethasone cream, blank gel preparation, and MDI-1228 compound gel preparation applied to the skin, twice daily (at 9 AM and 5 PM, with an interval of at least 6 hours). Note: To prevent animals from licking the medication off each other, after the gel was applied, the animals were placed individually in a pad-free independent cage to move around for a period of time to allow the gel to air dry for 1 hour before being returned to the normal feeding cage. Single housing is discouraged as it can lead to depression; wrapping the application area with gauze is also prohibited as it can absorb the medication.
During the treatment period, the local changes in the hair loss area of the mice were observed, and the hair growth and adverse reactions were recorded in detail, and scores were assigned according to the following table.
The reagents and instruments required for HE staining included: Hematoxylin staining solution (AR11800-1, BOSTER); Eosin staining solution (AR11800-2, BOSTER); Ultra-clean advanced mounting medium (YZB, BASO); Scott's blueing solution (G1865, Solarbio), etc. Medication refrigerator (BYC-310, Shandong Bokai Biotech); Microscope (CX41 OLYMPUS); Microtome (BQ-318D, Berne); Electric heating blast drying oven (DHG-9070A, Hengke Scientific Instrument Co., Ltd.). The taken tissue was rinsed with running water for several hours, dehydrated through a series of ethanol solutions (70%, 80%, 90%), and then treated with a mixture of pure alcohol and xylene at a ratio of 1:1 for 15 minutes, followed by xylene I for 15 minutes and xylene II for 15 minutes until transparent. The tissue was then placed in a mixture of xylene and paraffin at a ratio of 1:1 for 15 minutes, followed by immersion with paraffin I and paraffin II each for 50-60 minutes. The tissue was embedded in paraffin and sectioned.

[1] = 0.5%, 1%, positive control drug, vs. model group

## CCc1cc(O)c(F)cc1-c1ccc2c(-c3nc4c([nH]3)CN(C(=O)N3CC[C@H](O)C3)C4)n[nH]c2c1 [MDI-1228, (S)-(2-(6-(2-ethyl-5-fluoro-4-hydroxyphenyl)-1H-indazol-3-yl)-4,6-dihydropyrrolo[3,4-d]imidazol-5-(1H)-yl)(3-hydroxylpyrrolidin-1-yl)ketone]
Vitiligo model in mice; 0.5%, 1%, 3% MDI-1228 gel twice daily, vs. model group
  Skin & hair depigmentation area scores: a reduction in depigmentation area scores
Vitiligo model in mice; [1]
  IL-6 level in serum: a reduced IL-6 level
  TNF-α level in serum: a reduced TNF-α level
Vitiligo model in mice; 1% and 3% MDI-1228 gel
  Skin HE staining (hair follicles, melanin granules): the most significant effects
Vitiligo model in mice
  IL-6 level in serum: the most significant reduction in IL-6 level
  TNF-α level in serum: the most significant reduction in TNF-α level
Vitiligo model in mice; 3% MDI-1228 gel 1.5 g/kg twice daily, vs. model group
  Area under the curve (AUC) of depigmentation scores: the greatest reduction in AUC scores
Vitiligo model in mice; different concentrations of MDI-1228
  Therapeutic effect in vitiligo mice (conclusion): significant therapeutic effect
Alopecia areata in mice; 0.5%, 1%, 3% MDI-1228 gel
  Skin HE staining (hair follicles): some therapeutic effect
Alopecia areata in mice; 0.5%, 1%, 3% MDI-1228 gel twice daily, vs. blank gel group
  Area under the curve (AUC) of hair growth scores: significantly promoted hair growth in alopecia areata animals
Alopecia areata in mice; 3% MDI-1228 gel
  Hair growth scores after 21 days: the best effect
Alopecia areata in mice; all MDI-1228 treatment groups (0.5%, 1%, 3% gel), vs. model group
  Hair growth scores after 21 days: significantly higher than the model group
Alopecia areata in mice; mouse, in vivo
  Symptoms of alopecia areata (conclusion): can improve the symptoms of alopecia areata in mice to a certain extent
